Measurements as given in ChEMBL document CHEMBL5647690, “Inhibition of demethylases by GSK-J1/J4” (Nature, 2014).

Legend:
[1] = biological target: T1, Lysine-specific demethylase 2B (Homo sapiens, UniProt Q8NHM5); test: Inhibition of KDM2B (1 to 650 residues)(unknown origin) by Alphalisa assay
T1 sequence (Q8NHM5 whole entry): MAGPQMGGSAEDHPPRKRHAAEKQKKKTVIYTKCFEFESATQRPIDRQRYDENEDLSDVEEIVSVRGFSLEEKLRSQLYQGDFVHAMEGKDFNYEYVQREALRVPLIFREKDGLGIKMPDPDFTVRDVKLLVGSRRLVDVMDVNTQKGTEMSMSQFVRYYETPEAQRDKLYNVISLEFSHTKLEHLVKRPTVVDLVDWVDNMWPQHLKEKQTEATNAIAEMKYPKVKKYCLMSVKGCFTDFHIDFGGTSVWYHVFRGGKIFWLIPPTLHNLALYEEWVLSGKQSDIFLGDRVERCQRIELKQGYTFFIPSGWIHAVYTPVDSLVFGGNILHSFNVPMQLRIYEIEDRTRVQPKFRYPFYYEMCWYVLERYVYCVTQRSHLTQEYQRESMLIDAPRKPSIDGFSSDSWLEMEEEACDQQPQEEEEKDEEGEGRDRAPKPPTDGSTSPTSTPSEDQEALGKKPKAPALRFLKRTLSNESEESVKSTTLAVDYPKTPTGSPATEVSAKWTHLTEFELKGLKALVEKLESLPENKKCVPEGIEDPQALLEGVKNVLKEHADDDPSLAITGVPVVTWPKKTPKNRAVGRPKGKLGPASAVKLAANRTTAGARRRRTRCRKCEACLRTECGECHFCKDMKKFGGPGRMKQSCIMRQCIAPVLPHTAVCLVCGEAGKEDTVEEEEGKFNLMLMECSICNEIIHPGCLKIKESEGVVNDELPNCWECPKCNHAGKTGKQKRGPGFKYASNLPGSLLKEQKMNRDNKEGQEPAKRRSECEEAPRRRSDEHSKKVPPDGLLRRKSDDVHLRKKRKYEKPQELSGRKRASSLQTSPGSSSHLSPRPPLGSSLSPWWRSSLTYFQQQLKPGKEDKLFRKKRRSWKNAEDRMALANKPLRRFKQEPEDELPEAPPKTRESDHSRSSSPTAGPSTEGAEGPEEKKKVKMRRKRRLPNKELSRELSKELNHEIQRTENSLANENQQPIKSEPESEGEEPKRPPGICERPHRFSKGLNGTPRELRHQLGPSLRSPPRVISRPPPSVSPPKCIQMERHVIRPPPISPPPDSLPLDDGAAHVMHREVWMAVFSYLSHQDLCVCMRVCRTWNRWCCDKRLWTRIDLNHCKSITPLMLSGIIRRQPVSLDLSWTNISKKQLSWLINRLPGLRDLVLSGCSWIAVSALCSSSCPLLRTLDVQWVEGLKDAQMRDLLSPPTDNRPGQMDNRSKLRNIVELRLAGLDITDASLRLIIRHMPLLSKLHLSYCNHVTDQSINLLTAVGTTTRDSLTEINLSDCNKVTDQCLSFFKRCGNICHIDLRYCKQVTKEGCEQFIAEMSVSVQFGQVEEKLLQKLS

[2] = biological target: Lysine-specific demethylase 3B (Homo sapiens, UniProt Q7LBC6); test: Inhibition of KDM3B (842 to 1761 residues)(unknown origin) by Alphalisa assay
Lysine-specific demethylase 3B, sequence (Q7LBC6 whole entry, the tested form may be a part): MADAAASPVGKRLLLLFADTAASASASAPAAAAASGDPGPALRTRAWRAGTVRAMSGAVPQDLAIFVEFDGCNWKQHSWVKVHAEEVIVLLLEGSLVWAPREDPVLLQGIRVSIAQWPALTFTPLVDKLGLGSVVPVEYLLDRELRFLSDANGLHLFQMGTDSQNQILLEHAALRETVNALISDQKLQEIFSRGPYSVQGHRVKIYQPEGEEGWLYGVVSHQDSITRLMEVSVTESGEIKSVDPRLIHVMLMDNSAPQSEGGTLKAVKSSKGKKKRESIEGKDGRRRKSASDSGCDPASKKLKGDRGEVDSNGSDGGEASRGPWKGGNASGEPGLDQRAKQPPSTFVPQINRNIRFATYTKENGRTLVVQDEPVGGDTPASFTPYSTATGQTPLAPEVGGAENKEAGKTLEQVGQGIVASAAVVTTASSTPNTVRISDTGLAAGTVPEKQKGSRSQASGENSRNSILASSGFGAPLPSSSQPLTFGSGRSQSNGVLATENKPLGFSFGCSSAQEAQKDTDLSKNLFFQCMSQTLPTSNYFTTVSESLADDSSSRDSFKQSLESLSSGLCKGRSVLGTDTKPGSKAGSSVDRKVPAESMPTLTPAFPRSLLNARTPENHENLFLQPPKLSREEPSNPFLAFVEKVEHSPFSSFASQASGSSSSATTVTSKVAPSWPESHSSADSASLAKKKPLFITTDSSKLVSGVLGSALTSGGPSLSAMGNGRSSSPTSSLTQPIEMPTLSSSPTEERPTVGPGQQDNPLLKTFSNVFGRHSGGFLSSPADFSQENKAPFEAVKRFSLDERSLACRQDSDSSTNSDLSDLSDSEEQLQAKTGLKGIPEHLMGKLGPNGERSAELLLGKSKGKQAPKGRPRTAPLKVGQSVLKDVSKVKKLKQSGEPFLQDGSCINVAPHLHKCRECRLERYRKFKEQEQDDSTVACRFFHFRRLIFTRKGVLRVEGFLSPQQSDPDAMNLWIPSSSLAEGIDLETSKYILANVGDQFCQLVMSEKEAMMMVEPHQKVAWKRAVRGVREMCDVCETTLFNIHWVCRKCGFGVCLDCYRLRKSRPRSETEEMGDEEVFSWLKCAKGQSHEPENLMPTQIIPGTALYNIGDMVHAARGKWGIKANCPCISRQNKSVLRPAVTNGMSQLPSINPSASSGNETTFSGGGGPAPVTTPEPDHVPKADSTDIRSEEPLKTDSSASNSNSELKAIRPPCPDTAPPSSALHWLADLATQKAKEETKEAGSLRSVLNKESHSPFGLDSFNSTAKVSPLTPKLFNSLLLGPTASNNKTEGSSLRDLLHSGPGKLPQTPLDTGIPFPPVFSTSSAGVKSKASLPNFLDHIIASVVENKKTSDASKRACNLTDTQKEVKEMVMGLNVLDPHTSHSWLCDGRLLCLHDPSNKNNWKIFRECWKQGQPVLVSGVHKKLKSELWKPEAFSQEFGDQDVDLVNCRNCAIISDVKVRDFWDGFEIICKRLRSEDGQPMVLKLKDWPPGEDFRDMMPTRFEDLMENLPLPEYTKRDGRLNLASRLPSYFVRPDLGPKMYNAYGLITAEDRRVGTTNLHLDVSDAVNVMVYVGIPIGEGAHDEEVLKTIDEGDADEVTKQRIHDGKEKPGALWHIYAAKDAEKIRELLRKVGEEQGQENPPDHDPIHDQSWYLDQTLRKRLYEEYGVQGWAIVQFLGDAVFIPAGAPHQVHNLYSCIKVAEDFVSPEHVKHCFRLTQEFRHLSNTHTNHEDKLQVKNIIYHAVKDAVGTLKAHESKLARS

[3] = biological target: T2, Lysine-specific demethylase 4A (Homo sapiens, UniProt O75164); test: Inhibition of KDM4A (1 to 350 residues)(unknown origin) by Alphalisa assay
T2 sequence (O75164 whole entry): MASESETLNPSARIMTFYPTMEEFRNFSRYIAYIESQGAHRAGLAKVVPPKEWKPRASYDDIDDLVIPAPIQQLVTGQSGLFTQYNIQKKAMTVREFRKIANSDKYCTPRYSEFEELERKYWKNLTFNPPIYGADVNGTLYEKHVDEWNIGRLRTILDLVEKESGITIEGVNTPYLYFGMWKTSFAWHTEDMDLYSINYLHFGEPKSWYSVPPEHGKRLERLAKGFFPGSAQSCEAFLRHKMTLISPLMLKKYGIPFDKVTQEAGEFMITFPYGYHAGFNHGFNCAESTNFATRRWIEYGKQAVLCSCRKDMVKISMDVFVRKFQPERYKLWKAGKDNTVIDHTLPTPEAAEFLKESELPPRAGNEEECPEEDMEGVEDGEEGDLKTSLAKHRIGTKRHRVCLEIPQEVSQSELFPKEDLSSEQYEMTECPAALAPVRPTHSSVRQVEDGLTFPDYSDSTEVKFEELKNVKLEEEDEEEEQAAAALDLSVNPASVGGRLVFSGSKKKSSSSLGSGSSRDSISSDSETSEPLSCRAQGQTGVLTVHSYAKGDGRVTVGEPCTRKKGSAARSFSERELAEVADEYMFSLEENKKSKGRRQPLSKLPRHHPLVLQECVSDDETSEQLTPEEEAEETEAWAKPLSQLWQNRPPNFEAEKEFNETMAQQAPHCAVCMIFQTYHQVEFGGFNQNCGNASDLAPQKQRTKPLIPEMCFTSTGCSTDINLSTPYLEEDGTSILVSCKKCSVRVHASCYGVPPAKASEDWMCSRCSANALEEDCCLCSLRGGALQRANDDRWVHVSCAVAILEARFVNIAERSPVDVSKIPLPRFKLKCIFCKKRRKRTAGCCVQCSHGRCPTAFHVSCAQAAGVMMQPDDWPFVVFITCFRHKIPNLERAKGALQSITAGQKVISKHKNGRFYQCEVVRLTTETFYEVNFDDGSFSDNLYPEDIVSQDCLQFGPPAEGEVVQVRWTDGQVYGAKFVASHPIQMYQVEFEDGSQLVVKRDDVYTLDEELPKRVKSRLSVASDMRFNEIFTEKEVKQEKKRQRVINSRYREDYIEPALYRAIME

[4] = biological target: Lysine-specific demethylase 5B (Homo sapiens, UniProt Q9UGL1); test: Inhibition of KDM5B (1 to 809 residues)(unknown origin) by Alphalisa assay
Lysine-specific demethylase 5B, sequence (Q9UGL1 whole entry, the tested form may be a part): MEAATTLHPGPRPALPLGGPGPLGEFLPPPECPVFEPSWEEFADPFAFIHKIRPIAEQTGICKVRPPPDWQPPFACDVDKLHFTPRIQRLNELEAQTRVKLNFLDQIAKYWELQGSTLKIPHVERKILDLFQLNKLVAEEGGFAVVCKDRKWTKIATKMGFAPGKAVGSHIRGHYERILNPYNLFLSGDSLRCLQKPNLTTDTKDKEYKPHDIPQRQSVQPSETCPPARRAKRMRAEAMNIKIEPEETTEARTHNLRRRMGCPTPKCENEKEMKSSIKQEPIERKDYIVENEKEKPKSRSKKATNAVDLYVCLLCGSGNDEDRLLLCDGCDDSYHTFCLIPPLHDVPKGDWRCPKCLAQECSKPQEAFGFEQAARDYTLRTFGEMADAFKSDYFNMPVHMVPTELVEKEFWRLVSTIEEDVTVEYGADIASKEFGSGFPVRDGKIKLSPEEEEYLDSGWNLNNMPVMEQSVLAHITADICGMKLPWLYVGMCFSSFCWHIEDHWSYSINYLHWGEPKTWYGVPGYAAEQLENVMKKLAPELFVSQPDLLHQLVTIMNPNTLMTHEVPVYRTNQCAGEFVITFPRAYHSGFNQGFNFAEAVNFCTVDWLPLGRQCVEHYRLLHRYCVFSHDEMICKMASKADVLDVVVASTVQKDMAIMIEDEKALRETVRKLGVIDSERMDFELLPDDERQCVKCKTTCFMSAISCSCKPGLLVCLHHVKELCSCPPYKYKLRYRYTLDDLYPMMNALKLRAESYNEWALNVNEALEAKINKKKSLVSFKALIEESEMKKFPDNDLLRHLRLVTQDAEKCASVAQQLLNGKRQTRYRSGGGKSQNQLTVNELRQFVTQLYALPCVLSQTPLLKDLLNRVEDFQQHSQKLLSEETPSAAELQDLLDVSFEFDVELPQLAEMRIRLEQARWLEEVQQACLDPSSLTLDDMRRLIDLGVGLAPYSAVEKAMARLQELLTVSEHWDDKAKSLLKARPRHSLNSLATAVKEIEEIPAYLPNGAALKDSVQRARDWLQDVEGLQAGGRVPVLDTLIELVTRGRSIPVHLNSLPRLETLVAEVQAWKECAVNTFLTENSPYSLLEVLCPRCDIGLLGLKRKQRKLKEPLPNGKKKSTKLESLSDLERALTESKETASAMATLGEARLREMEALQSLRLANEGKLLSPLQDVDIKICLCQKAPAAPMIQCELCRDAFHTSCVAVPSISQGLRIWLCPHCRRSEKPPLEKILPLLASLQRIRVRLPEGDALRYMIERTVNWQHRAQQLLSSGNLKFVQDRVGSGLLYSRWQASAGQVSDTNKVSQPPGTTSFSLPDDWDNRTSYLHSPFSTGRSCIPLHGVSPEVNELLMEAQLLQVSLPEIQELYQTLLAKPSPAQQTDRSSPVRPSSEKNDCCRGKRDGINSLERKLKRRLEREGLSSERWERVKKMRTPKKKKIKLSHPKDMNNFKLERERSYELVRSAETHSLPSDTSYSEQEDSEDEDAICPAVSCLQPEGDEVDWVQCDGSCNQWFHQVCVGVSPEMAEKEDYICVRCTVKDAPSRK

[5] = biological target: Histone lysine demethylase PHF8 (Homo sapiens, UniProt Q9UPP1); test: Inhibition of PHF8 (1 to 1024 residues)(unknown origin) by Alphalisa assay
Histone lysine demethylase PHF8, sequence (Q9UPP1 whole entry, the tested form may be a part): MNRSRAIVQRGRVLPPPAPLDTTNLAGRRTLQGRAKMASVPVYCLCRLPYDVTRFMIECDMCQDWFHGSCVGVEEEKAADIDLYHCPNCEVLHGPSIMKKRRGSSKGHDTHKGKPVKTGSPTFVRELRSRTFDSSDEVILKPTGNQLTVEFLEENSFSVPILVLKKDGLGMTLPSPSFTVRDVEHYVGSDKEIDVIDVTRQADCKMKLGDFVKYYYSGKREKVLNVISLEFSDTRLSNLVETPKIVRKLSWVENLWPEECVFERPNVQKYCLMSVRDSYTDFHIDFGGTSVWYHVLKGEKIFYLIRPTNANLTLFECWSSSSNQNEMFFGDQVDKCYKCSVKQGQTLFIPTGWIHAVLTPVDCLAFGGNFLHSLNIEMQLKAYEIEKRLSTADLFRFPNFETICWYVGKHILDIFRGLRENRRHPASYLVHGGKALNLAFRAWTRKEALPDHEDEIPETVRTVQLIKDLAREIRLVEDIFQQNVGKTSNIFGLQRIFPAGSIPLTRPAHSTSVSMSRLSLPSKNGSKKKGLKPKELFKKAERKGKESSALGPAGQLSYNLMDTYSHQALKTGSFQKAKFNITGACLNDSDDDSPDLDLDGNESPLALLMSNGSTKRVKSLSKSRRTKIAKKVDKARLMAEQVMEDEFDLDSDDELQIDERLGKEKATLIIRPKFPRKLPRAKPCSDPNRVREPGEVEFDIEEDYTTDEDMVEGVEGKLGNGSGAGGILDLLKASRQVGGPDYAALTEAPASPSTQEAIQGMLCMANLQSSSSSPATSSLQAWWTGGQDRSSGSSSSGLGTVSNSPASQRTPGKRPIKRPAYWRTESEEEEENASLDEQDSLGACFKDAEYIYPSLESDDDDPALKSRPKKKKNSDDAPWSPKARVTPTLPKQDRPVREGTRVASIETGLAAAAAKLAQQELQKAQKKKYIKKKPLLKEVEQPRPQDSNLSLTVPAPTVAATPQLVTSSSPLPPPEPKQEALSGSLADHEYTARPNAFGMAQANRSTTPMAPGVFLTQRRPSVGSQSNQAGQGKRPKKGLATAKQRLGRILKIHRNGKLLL

Row | SMILES | IC50 [1] | IC50 [2] | IC50 [3] | IC50 [4] | IC50 [5]
1 | CCOC(=O)CCNc1cc(N2CCc3ccccc3CC2)nc(-c2ccccn2)n1 | 2.1 µM | 6.9 µM | 7.5 µM | 9.7 µM | 4.2 µM
2 | O=C(O)CCNc1cc(N2CCc3ccccc3CC2)nc(-c2ccccn2)n1 | 21 µM | > 75 µM | > 50 µM | 0.17 µM | 28 µM
